Test results from patent publication US20200288711A1, “Pyrimidin-4-Carbamate or Urea Derivatives As Herbicides” (Syngenta Participations AG, priority 2017, published 2020).

Assays:
Format in all cases: in vivo
[1] = test system: Alopecurus myosuroides (ALOMY); test: B1 pre-emergence herbicidal activity; set-up: key: 5=total damage to plant; 0=no damage to plant; conditions: Test 1b, rate 1000 g/ha, evaluated after 13 days, score 0-5 (5=total damage, 0=no damage)
Experimental: (§1) Seeds of a variety of test species were sown in standard soil in pots: Triticum aestivium (TRZAW), Avena fatua (AVEFA), Alopecurus myosuroides (ALOMY), Echinochloa crus-galli (ECHCG), Lolium perenne (LOLPE), Zea mays (ZEAMX), Abutilon theophrasti (ABUTH), Amaranthus retroflexus (AMARE) and Setaria faberi (SETFA). After cultivation for one day (pre-emergence) under controlled conditions in a glasshouse (at 24/16° C., day/night; 14 hours light; 65% humidity), the plants were sprayed with an aqueous spray solution derived from the formulation of the technical active ingredient in acetone/water (50:50) solution containing 0.5% Tween 20 (polyoxyethelyene sorbitan monolaurate, CAS RN 9005-64-5). The test plants were then grown in a glasshouse under controlled conditions (at 24/16° C., day/night; 14 hours light; 65% humidity) and watered twice daily. After 13 days, the test was evaluated (5=total damage to plant; 0=no damage to plant).

[2] = test system: Avena fatua (AVEFA); test: B1 pre-emergence herbicidal activity; set-up: key: 5=total damage to plant; 0=no damage to plant; conditions: Test 1b, rate 1000 g/ha, evaluated after 13 days, score 0-5 (5=total damage, 0=no damage)
Experimental: as §1

[3] = test system: Lolium perenne (LOLPE); test: B1 pre-emergence herbicidal activity; set-up: key: 5=total damage to plant; 0=no damage to plant; conditions: Test 1b, rate 1000 g/ha, evaluated after 13 days, score 0-5 (5=total damage, 0=no damage)
Experimental: as §1

[4] = test system: Triticum aestivium (TRZAW); test: B1 pre-emergence herbicidal activity; set-up: key: 5=total damage to plant; 0=no damage to plant; conditions: Test 1b, rate 1000 g/ha, evaluated after 13 days, score 0-5 (5=total damage, 0=no damage)
Experimental: as §1

[5] = test system: Setaria faberi (SETFA); test: B1 pre-emergence herbicidal activity; set-up: key to Pre-emergence herbicidal activity, SETFA: 5=total damage to plant; 0=no damage to plant; conditions: Test 1b, rate 1000 g/ha, evaluated after 13 days, score 0-5 (5=total damage, 0=no damage)
Experimental: as §1

[6] = test system: Echinochloa crus-galli (ECHCG); test: B1 pre-emergence herbicidal activity; set-up: key to Pre-emergence herbicidal activity, ECHCG: 5=total damage to plant; 0=no damage to plant; conditions: Test 1b, rate 1000 g/ha, evaluated after 13 days, score 0-5 (5=total damage, 0=no damage)
Experimental: as §1

[7] = test system: Alopecurus myosuroides (ALOMY); test: B2 post-emergence herbicidal activity; set-up: key: 5=total damage to plant; 0=no damage to plant; conditions: Test 2b, rate 1000 g/ha, evaluated after 13 days, score 0-5 (5=total damage, 0=no damage)
Experimental: (§2) Seeds of a variety of test species were sown in standard soil in pots: Triticum aestivium (TRZAW), Avena fatua (AVEFA), Alopecurus myosuroides (ALOMY), Echinochloa crus-galli (ECHCG), Lolium perenne (LOLPE), Zea mays (ZEAMX), Abutilon theophrasti (ABUTH), Amaranthus retroflexus (AMARE) and Setaria faberi (SETFA). After 8 days cultivation (post-emergence) under controlled conditions in a glasshouse (at 24/16° C., day/night; 14 hours light; 65% humidity), the plants were sprayed with an aqueous spray solution derived from the formulation of the technical active ingredient in acetone/water (50:50) solution containing 0.5% Tween 20 (polyoxyethelyene sorbitan monolaurate, CAS RN 9005-64-5). The test plants were then grown in a glasshouse under controlled conditions (at 24/16° C., day/night; 14 hours light; 65% humidity) and watered twice daily. After 13 days, the test was evaluated (5=total damage to plant; 0=no damage to plant).

[8] = test system: Avena fatua (AVEFA); test: B2 post-emergence herbicidal activity; set-up: key: 5=total damage to plant; 0=no damage to plant; conditions: Test 2b, rate 1000 g/ha, evaluated after 13 days, score 0-5 (5=total damage, 0=no damage)
Experimental: as §2

[9] = test system: Echinochloa crus-galli (ECHCG); test: B2 post-emergence herbicidal activity; set-up: key: 5=total damage to plant; 0=no damage to plant; conditions: Test 2b, rate 1000 g/ha, evaluated after 13 days, score 0-5 (5=total damage, 0=no damage)
Experimental: as §2

[10] = test system: Lolium perenne (LOLPE); test: B2 post-emergence herbicidal activity; set-up: key: 5=total damage to plant; 0=no damage to plant; conditions: Test 2b, rate 1000 g/ha, evaluated after 13 days, score 0-5 (5=total damage, 0=no damage)
Experimental: as §2

[11] = test system: Setaria faberi (SETFA); test: B2 post-emergence herbicidal activity; set-up: key: 5=total damage to plant; 0=no damage to plant; conditions: Test 2b, rate 1000 g/ha, evaluated after 13 days, score 0-5 (5=total damage, 0=no damage)
Experimental: as §2

[12] = test system: Triticum aestivium (TRZAW); test: B2 post-emergence herbicidal activity; set-up: key: 5=total damage to plant; 0=no damage to plant; conditions: Test 2b, rate 1000 g/ha, evaluated after 13 days, score 0-5 (5=total damage, 0=no damage)
Experimental: as §2

Cc1nc(-c2cncnc2)ncc1N(C)C(=O)OC(C)(C)C [Compound E3]
Pre-emergence herbicidal activity, ALOMY [1]: 1 | Pre-emergence herbicidal activity, AVEFA [2]: 4 | Pre-emergence herbicidal activity, LOLPE [3]: 1 | Pre-emergence herbicidal activity, TRAZW [4]: 0 | Pre-emergence herbicidal activity, SETFA [5]: 4 | Pre-emergence herbicidal activity, ECHCG [6]: 4 | Control of weed species after post-emergence application, ALOMY [7]: 2 | Control of weed species after post-emergence application, AVEFA [8]: 4 | Control of weed species after post-emergence application, ECHCG [9]: 4 | Control of weed species after post-emergence application, LOLPE [10]: 3 | Control of weed species after post-emergence application, SETFA [11]: 5 | Control of weed species after post-emergence application, TRAZW [12]: 1

CC(C)(C)OC(=O)Nc1cnc(-c2cncc(F)c2)nc1C(F)(F)F [Compound E4, tert-butyl N-[2-(5-fluoro-3-pyridyl)-4-(trifluoromethyl)pyrimidin-5-yl]carbamate]
Pre-emergence herbicidal activity, ALOMY [1]: 0 | Pre-emergence herbicidal activity, AVEFA [2]: 4 | Pre-emergence herbicidal activity, LOLPE [3]: 1 | Pre-emergence herbicidal activity, TRAZW [4]: 0 | Pre-emergence herbicidal activity, SETFA [5]: 4 | Pre-emergence herbicidal activity, ECHCG [6]: 4 | Control of weed species after post-emergence application, ALOMY [7]: 1 | Control of weed species after post-emergence application, AVEFA [8]: 4 | Control of weed species after post-emergence application, ECHCG [9]: 4 | Control of weed species after post-emergence application, LOLPE [10]: 3 | Control of weed species after post-emergence application, SETFA [11]: 5 | Control of weed species after post-emergence application, TRAZW [12]: 1

CN(C(=O)OC(C)(C)C)c1cnc(-c2cncc(F)c2)nc1C(F)(F)F [Compound E5]
Pre-emergence herbicidal activity, ALOMY [1]: 0 | Pre-emergence herbicidal activity, AVEFA [2]: 3 | Pre-emergence herbicidal activity, LOLPE [3]: 1 | Pre-emergence herbicidal activity, TRAZW [4]: 0 | Pre-emergence herbicidal activity, SETFA [5]: 5 | Pre-emergence herbicidal activity, ECHCG [6]: 3 | Control of weed species after post-emergence application, ALOMY [7]: 0 | Control of weed species after post-emergence application, AVEFA [8]: 4 | Control of weed species after post-emergence application, ECHCG [9]: 4 | Control of weed species after post-emergence application, LOLPE [10]: 2 | Control of weed species after post-emergence application, SETFA [11]: 5 | Control of weed species after post-emergence application, TRAZW [12]: 0

C=CCN(C(=O)OC(C)(C)C)c1cnc(-c2cncnc2)nc1C [Compound E6]
Pre-emergence herbicidal activity, ALOMY [1]: 0 | Pre-emergence herbicidal activity, AVEFA [2]: 1 | Pre-emergence herbicidal activity, LOLPE [3]: 1 | Pre-emergence herbicidal activity, TRAZW [4]: 0 | Pre-emergence herbicidal activity, SETFA [5]: 5 | Pre-emergence herbicidal activity, ECHCG [6]: 3 | Control of weed species after post-emergence application, ALOMY [7]: 1 | Control of weed species after post-emergence application, AVEFA [8]: 2 | Control of weed species after post-emergence application, ECHCG [9]: 3 | Control of weed species after post-emergence application, LOLPE [10]: 1 | Control of weed species after post-emergence application, SETFA [11]: 5 | Control of weed species after post-emergence application, TRAZW [12]: 1

Cc1nc(-c2cncnc2)ncc1NC(=O)OC(C)(C)C [Compound E7, tert-butyl N-(4-methyl-2-pyrimidin-5-yl-pyrimidin-5-yl)carbamate]
Pre-emergence herbicidal activity, ALOMY [1]: 0 | Pre-emergence herbicidal activity, AVEFA [2]: 2 | Pre-emergence herbicidal activity, LOLPE [3]: 1 | Pre-emergence herbicidal activity, TRAZW [4]: 0 | Pre-emergence herbicidal activity, SETFA [5]: 4 | Pre-emergence herbicidal activity, ECHCG [6]: 5 | Control of weed species after post-emergence application, ALOMY [7]: 0 | Control of weed species after post-emergence application, AVEFA [8]: 3 | Control of weed species after post-emergence application, ECHCG [9]: 4 | Control of weed species after post-emergence application, LOLPE [10]: 2 | Control of weed species after post-emergence application, SETFA [11]: 4 | Control of weed species after post-emergence application, TRAZW [12]: 0

O=C(Nc1cnc(-c2cncc(F)c2)nc1C(F)(F)F)N1CCOCC1 [Compound E8, N-[2-(5-fluoro-3-pyridyl)-4-(trifluoromethyl)pyrimidin-5-yl]morpholine-4-carboxamide]
Pre-emergence herbicidal activity, ALOMY [1]: 0 | Pre-emergence herbicidal activity, AVEFA [2]: 2 | Pre-emergence herbicidal activity, LOLPE [3]: 1 | Pre-emergence herbicidal activity, TRAZW [4]: 0 | Pre-emergence herbicidal activity, SETFA [5]: 4 | Pre-emergence herbicidal activity, ECHCG [6]: 3 | Control of weed species after post-emergence application, ALOMY [7]: 1 | Control of weed species after post-emergence application, AVEFA [8]: 3 | Control of weed species after post-emergence application, ECHCG [9]: 4 | Control of weed species after post-emergence application, LOLPE [10]: 3 | Control of weed species after post-emergence application, SETFA [11]: 5 | Control of weed species after post-emergence application, TRAZW [12]: 1

CN1CCN(c2cnc(-c3cncc(F)c3)nc2C(F)(F)F)C1=O [Compound E9, 1-[2-(5-fluoro-3-pyridyl)-4-(trifluoromethyl)pyrimidin-5-yl]-3-methyl-imidazolidin-2-one]
Pre-emergence herbicidal activity, ALOMY [1]: 0 | Pre-emergence herbicidal activity, AVEFA [2]: 1 | Pre-emergence herbicidal activity, LOLPE [3]: 1 | Pre-emergence herbicidal activity, TRAZW [4]: 0 | Pre-emergence herbicidal activity, SETFA [5]: 2 | Pre-emergence herbicidal activity, ECHCG [6]: 1 | Control of weed species after post-emergence application, ALOMY [7]: 0 | Control of weed species after post-emergence application, AVEFA [8]: 2 | Control of weed species after post-emergence application, ECHCG [9]: 4 | Control of weed species after post-emergence application, LOLPE [10]: 1 | Control of weed species after post-emergence application, SETFA [11]: 3 | Control of weed species after post-emergence application, TRAZW [12]: 1

CCCOC(=O)Nc1cnc(-c2cncc(F)c2)nc1C(F)(F)F [Compound E10]
Pre-emergence herbicidal activity, ALOMY [1]: 0 | Pre-emergence herbicidal activity, AVEFA [2]: 2 | Pre-emergence herbicidal activity, LOLPE [3]: 1 | Pre-emergence herbicidal activity, TRAZW [4]: 0 | Pre-emergence herbicidal activity, ECHCG [6]: 4 | Control of weed species after post-emergence application, ALOMY [7]: 0 | Control of weed species after post-emergence application, AVEFA [8]: 3 | Control of weed species after post-emergence application, ECHCG [9]: 4 | Control of weed species after post-emergence application, LOLPE [10]: 1 | Control of weed species after post-emergence application, SETFA [11]: 5 | Control of weed species after post-emergence application, TRAZW [12]: 1

CC(C)(C)OC(=O)Nc1cnc(-c2cncnc2)nc1C(F)(F)F [Compound E11]
Pre-emergence herbicidal activity, ALOMY [1]: 1 | Pre-emergence herbicidal activity, AVEFA [2]: 2 | Pre-emergence herbicidal activity, LOLPE [3]: 1 | Pre-emergence herbicidal activity, TRAZW [4]: 0 | Pre-emergence herbicidal activity, SETFA [5]: 4 | Pre-emergence herbicidal activity, ECHCG [6]: 3 | Control of weed species after post-emergence application, ALOMY [7]: 0 | Control of weed species after post-emergence application, AVEFA [8]: 3 | Control of weed species after post-emergence application, ECHCG [9]: 4 | Control of weed species after post-emergence application, LOLPE [10]: 2 | Control of weed species after post-emergence application, SETFA [11]: 4 | Control of weed species after post-emergence application, TRAZW [12]: 1
